Counter-ions that a name gives are not always drawn. Like-named read-outs stand apart in the source and are kept apart here.
How the values were obtained:
[1] = test system: Human small cell lung cancer LX-1 cell strain; assay: Antitumor activity in nude mice with subcutaneously transplanted LX-1 (amrubicin hydrochloride and irinotecan); format: in vivo; settings: single agent at maximum tolerated dose, intravenous (amrubicin hydrochloride 25 mg/kg; irinotecan 120 mg/kg), tumor volume measured for 23 days
[2] = test system: human squamous cell lung carcinoma QC-56 cell strain; assay: Antitumor activity in nude mice with transplanted QC-56 (amrubicin hydrochloride and vinorelbine); format: in vivo; settings: single agent at maximum tolerated dose (amrubicin hydrochloride 25 mg/kg; vinorelbine 16 mg/kg)
Procedure: (§1) Human small cell lung cancer LX-1 cell strain was subcutaneously transplanted to nude mice (59 animals) at 6 weeks of age. After 11 days from the tumor transplantation, 36 animals having a tumor volume of about 100 to 300 mm^3 were allotted to 6 groups consisting of 6 animals per group. […] Thereafter, tumor volume and body weight of the mice were measured for 23 days.
(§2) Minimum T/C %: the minimum value of ratio (%) of tumor growth rate^*) for respective administration groups to tumor growth rate^*) for the vehicle administration group within the period for measurement. ^*)Tumor growth rate: a ratio of an average value of tumor volume for a group of 6 animals at respective point in time of measurement to an average value of tumor volume for a group of 6 animals at respective point in time of drug administration.
(§3) Antitumor activity by a combination of amrubicin hydrochloride and vinorelbine was tested in the same way as Example 1, except that human squamous cell lung carcinoma QC-56 cell strain was used in place of human small cell lung cancer LX-1 cell strain and that the maximum tolerated dose of vinorelbine was set at 16 mg/kg. Vinorelbine was administered by giving 16, 12.8 or 8 ml/kg aliquot of Navelbine Injection (containing 10 mg/ml), purchased from Kyowa Hakko Kogyo Co., Ltd., as the maximum tolerated dose, the 0.8 times dose or the 0.5 times dose of vinorelbine. In addition, nude mice (100 animals) at 5 weeks of age were used.

[3] = test system: human squamous cell lung carcinoma QC-56 cell strain; assay: Antitumor activity in nude mice with transplanted QC-56 (amrubicin hydrochloride and gemcitabine); format: in vivo; settings: single agent at maximum tolerated dose (amrubicin hydrochloride 25 mg/kg; gemcitabine 300 mg/kg i.p. 2q7d)
Procedure: as §1, §2, §3
Antitumor activity by a combination of amrubicin hydrochloride and gemcitabine was tested in the same way as Example 2, except that the maximum tolerated dose of gemcitabine was set at 300 mg/kg/day and the administration was intraperitoneally once per week in two cycles. Gemcitabine was administered by giving […] aliquot of Gemzar Injection (containing 200 mg/bial), purchased from Eli Lilly Japan K.K., as the maximum tolerated dose, the 0.8 times dose or the 0.5 times dose of gemcitabine. In addition, nude mice (80 animals) at 5 weeks of age were used.

[4] = mice, cited from earlier work
[5] = humans, cited from earlier work
[6] = humans, cited from earlier work; remark: listed apart in the source
[7] = rabbit chronic experimental model, compared with doxorubicin; Invest. New Drug, 15, 219–225 (1997); cited from earlier work
[8] = test system: tumor cells; settings: compared with amrubicin; Cancer Chemothr. Pharmacol., 30, 51–57 (1992); cited from earlier work
[9] = listed as amrubicin hydrochloride

Q: For `CC(=O)[C@]1(N)Cc2c(O)c3c(c(O)c2[C@@H](OC2CC(O)C(O)CO2)C1)C(=O)c1ccccc1C3=O` (stereo partly drawn) [Amrubicin hydrochloride], which “Minimum T/C(%) Average ± SD” value [1] is on record?
A: 40.79 ± 5.92%

Q: And the “Minimum T/C(%) Average ± SD” value [1, 9]?
A: 40.79%

Q: What about the “Minimum T/C(%) Average ± SD” value [2] of the same compound?
A: 37.73 ± 7.56%

Q: And the “Minimum T/C(%) Average ± SD” value [2, 9]?
A: 37.73%

Q: And the “Minimum T/C(%) Average ± SD” value [3]?
A: 51.06 ± 16.56%

Q: What about the “Minimum T/C(%) Average ± SD” value [3, 9] of the same compound?
A: 51.06%

Q: What about the maximum tolerated dose ([4]; expressed per body surface) of the same compound?
A: 75 mg/m^2

Q: And the maximum tolerated dose [4]?
A: 25 mg/kg

Q: What about the maximum tolerated dose ([5]; administration in 3 continuous days) of the same compound?
A: 50 mg/m^2 per day

Q: And the maximum tolerated dose ([5]; once a day single dose)?
A: 130 mg/m^2

Q: For `Nc1ccn([C@@H]2O[C@H](CO)[C@@H](O)C2(F)F)c(=O)n1` [Gemcitabine], which “Minimum T/C(%) Average ± SD” value [3] is on record?
A: 69.47 ± 26.06%

Q: What about the “Minimum T/C(%) Average ± SD” value ([3]; listed as gemcitabine) of the same compound?
A: 69.47%

Q: What about the maximum administered dose [6] of the same compound?
A: 1000 mg/m^2

Q: What about the maximum tolerated dose [4] of the same compound?
A: 300 mg/kg/dose

Q: With `CCc1c2c(nc3ccc(OC(=O)N4CCC(N5CCCCC5)CC4)cc13)-c1cc3c(c(=O)n1C2)COC(=O)[C@]3(O)CC` [Irinotecan] as the compound, how does the maximum administered dose ([6]; at intervals of 3 weeks) read?
A: 350 mg/m^2

Q: What about the maximum administered dose ([6]; at intervals of a week) of the same compound?
A: 150 mg/m^2

Q: Which “Minimum T/C(%) Average ± SD” value [2] does the source give for `CCC1=C[C@@H]2CN(C1)Cc1c([nH]c3ccccc13)[C@@](C(=O)OC)(c1cc3c(cc1OC)N(C)[C@H]1[C@@](O)(C(=O)OC)[C@H](OC(C)=O)[C@]4(CC)C=CCN5CC[C@]31[C@@H]54)C2` [Vinorelbine] here?
A: 38.24 ± 12.87%

Q: And the “Minimum T/C(%) Average ± SD” value ([2]; listed as vinorelbine)?
A: 38.24%

Q: What about the maximum administered dose [6] of the same compound?
A: 25 mg/m^2

Q: And the maximum tolerated dose [4]?
A: 16 mg/kg

Q: Which maximum tolerated dose [4] does the source give for `COc1cc2ncnc(Nc3ccc(F)c(Cl)c3)c2cc1OCCCN1CCOCC1` [ZD 1839, 4-(3-chloro-4-fluoroanilino)-7-methoxy-6-(3-morpholinopropoxy)quinazoline] here?
A: 200 mg/kg

Q: What about the maximum tolerated dose [5] of the same compound?
A: 700 mg/day

Q: For `CC(=O)[C@]1(N)Cc2c(O)c3c(c(O)c2[C@@H](O[C@H]2C[C@H](O)[C@H](O)CO2)C1)C(=O)c1ccccc1C3=O` [amrubicin, (+)-(7S,9S)-9-acetyl-9-amino-7-[(2-deoxy-β-D-erythro-pentopyranosyl)oxy]-7,8,9,10-tetrahydro-6,11-dihydroxy-5,12-naphthacenedione], which cardiac toxicity [7] is on record?
A: far weaker than doxorubicin

Q: Which “inhibitory activity against growth of tumor cells” value [8] does the source give for `CC(O)[C@]1(N)Cc2c(O)c3c(c(O)c2[C@@H](O[C@H]2C[C@H](O)[C@H](O)CO2)C1)C(=O)c1ccccc1C3=O` (stereo partly drawn) [amrubicinol] here?
A: considerably stronger inhibitory activity against growth of tumor cells than that of amrubicin

Q: What does the source list for `CC(=O)O[C@@]12CO[C@@H]1C[C@H](O)[C@@]1(C)C(=O)[C@H](O)C3=C(C)[C@@H](OC(=O)[C@H](O)[C@@H](NC(=O)OC(C)(C)C)c4ccccc4)C[C@@](O)([C@@H](OC(=O)c4ccccc4)[C@H]21)C3(C)C` [docetaxel]?
A: maximum administered dose [6]: 70 mg/m^2; maximum tolerated dose [4]: 30 mg/kg/dose

Q: With `CC(=O)O[C@H]1C(=O)[C@@]2(C)[C@H]([C@H](OC(=O)c3ccccc3)[C@]3(O)C[C@H](OC(=O)[C@H](O)[C@@H](NC(=O)c4ccccc4)c4ccccc4)C(C)=C1C3(C)C)[C@]1(OC(C)=O)CO[C@@H]1C[C@@H]2O` [paclitaxel] as the compound, how does the maximum tolerated dose [4] read?
A: 12.5 mg/kg/dose

Source: US7091189B2, “Medicament for treating lung cancer” (Dainippon Sumitomo Pharma Co., Ltd., priority 2002, dated 2006)
